Reference: patent US20230000875A1, “MULTIPLE UNIT PELLET SYSTEM TABLET COMPRISING RIBOFLAVIN” (DSM IP ASSETS B.V., priority 2019, published 2023)

Assay: Absorption of the solution of coated or uncoated riboflavin in water (coloration/release)
Assay type: physicochemical
Details: amount containing 10 mg riboflavin dissolved in 1000 ml water for 15 min; measured at 545 nm, spectrophotometer
Protocol: 80 g granulated Riboflavin was successively coated with 9% Na-alginate, 1% Ca-Chloride and 25% shellac using a WFP-mini fluid bed processor (DMR) in Wurster configuration. 89 g coated product with particle size between 250 and 1000 μm was obtained. Coating material was 35% of the particle mass, riboflavin content 50%. 20 mg of coated powder (containing 10 mg of Riboflavin) was dissolved in 1000 ml water for 15 min. Absorption of the solution was measured at 545 nm using a spectrophotometer (Genesys 20, thermo Scientific). Absorption of the solution was 0.065.
10 mg of riboflavin powder was dissolved in 1000 ml water for 15 min. Absorption of the solution was measured at 545 nm using a spectrophotometer (Genesys 20, thermo Scientific). Absorption of the solution was 0.386.
80 g granulated Riboflavin was coated with 60 g Eudragit FS30D and 10 g PIasACRYL T20 using a WFP-mini fluid bed processor (DMR) in Wurster configuration. 71 g coated product with particle size between 250 and 1000 μm was obtained. Coating material was ca. 20% of the particle mass, riboflavin content was 60%. 16.6 mg of coated powder (containing 10 mg of Riboflavin) was dissolved in 1000 ml water for 15 min. Absorption of the solution was measured at 545 nm using a spectrophotometer (Genesys 20, thermo Scientific). Absorption of the solution was 0.087.

Absorption of the solution: 0.386
SMILES: Cc1cc2nc3c(=O)[nH]c(=O)nc-3n(C[C@H](O)[C@H](O)[C@H](O)CO)c2cc1C [Comparison Example 2, riboflavin]
